Experimental data: patent US20230027620A1, “PENTAPEPTIDE AND METHODS OF USE THEREOF” (THE BOARD OF TRUSTEES OF THE UNIVERSITY OF ILLINOIS, priority 2019, published 2023)
Entries after “also recorded” stand apart in the source; their conditions may differ.

Columns and labels:
[1] = test system: Human corneal epithelial (HCE) cells; test: In vitro scratch assay, HCE cells; type: cell-based; details: compared with scrambled peptide control (SP1)
Procedure: Human corneal epithelial (HCE) cells were cultured in a Medium Essential Media (MEM; Gibco, Life Technologies, Carlsbad, Calif.). HeLa cells were maintained in Dulbecco's Modified Eagle's Medium (DMEM; Life Technologies, Grand Island, N.Y.). Both media were supplemented with 10% fetal bovine serum (Gibco, Life Technologies, Carlsbad, Calif.) and 1% penicillin-streptomycin (Gibco, Life Technologies, Carlsbad, Calif.). […]
In Vitro Scratch Assay. […] The wound area at each time-point was measured using Image J software (Image J 1.47v, NIH, Thornwood, Bethesda, Md.). Relative wound closure was calculated by dividing the closure of the treated wound by that of the untreated wound. […]
A cell sprouting assay using HCE cells embedded as a spot in growth factor reduced solubilized basement membrane sold under the tradename MATRIGEL® (Corning Life Sciences, Tewksbury, Mass.) was used to determine if HST5 could promote epithelial cell migration. […] Time-lapse microscopy was performed and wound areas were analyzed at different time points. […]
Wound closure rates of the three salt forms were also analyzed in accordance with the methods disclosed herein. In particular, human corneal epithelial cells were scratched using standardized scratch assays and rates of wound healing were measured after application of the acetic acid, hydrochloride and trifluoroacetate salt forms of SHRGY (SEQ ID NO:2).

HCE cells = test: Cell sprouting assay, HCE cells embedded in MATRIGEL; type: cell-based, Human; details: 50 μM, 72 hours, compared to vehicle only control
Procedure: Cell Sprouting Assay. A cell sprouting assay was performed using HCE cells in a solubilized basement membrane sold under the tradename MATRIGEL® (reduced and diluted in MEM 1:1; Corning Life Sciences, Tewksbury, Mass.). HCE cells were embedded in the solubilized basement membrane at 5×10^5 cells/10 μL spot. The cell spotted plates were then exposed to reduced serum media (0.5% FBS) (untreated negative control), Hst5 (50 μM), or 10% FBS (positive control). HCE cell migration was then followed with time lapse microscopy and imaged at 4× (Image Express Micro; Molecular Devices, CA). Cell covered area at a given time point was measured using Image J.
A cell sprouting assay using HCE cells embedded as a spot in growth factor reduced solubilized basement membrane sold under the tradename MATRIGEL® (Corning Life Sciences, Tewksbury, Mass.) was used to determine if HST5 could promote epithelial cell migration. […] A standardized scratch assay using the HCLE cell line tested the effects of Hst5 on cell migration. HCLE cells were grown to confluence and mechanically scratched using a pipette tip. Cells were treated with different concentrations (20, 50, 80 and 100 μM) of Hst5 or left untreated as a control. Time-lapse microscopy was performed and wound areas were analyzed at different time points. […] The most significant increase in scratch closure rates was noticed at 50 μM. […]

[2] = test system: epithelial cell migration; test: In vitro scratch assay, truncation and scrambled peptide series (FIG. 1; cell line not given); type: cell-based; details: 80 μM; FIG. 1; vs untreated control
Procedure: Peptides were tested for efficacy in accelerating scratch closure rates. Negative controls included untreated and multiple scrambled peptide (SP) controls. All peptides were tested at 80 μM concentration. All experiments were performed in triplicate with three technical replicates for each experiment. Statistical significance was determined by one-way ANOYA with Dunnett's post-hoc test. *p<0.05; **p<0.01; ***p<0.001. Relative closure=(% closure of treated sample)/(% closure of Untreated control).
In Vitro Scratch Assay. HCE, HCLE, HELA and MCF-7 cells were cultured in a 24-well plate at 2.5×10^5 (cells/well) seeding density, and were grown to confluence on a 24-well plate. Subsequently, a straight-line scratch mark was made with a sterile P200 pipette tip. The cells were then washed twice with phosphate-buffered saline (PBS) to remove cellular debris. Wounded areas were then treated with the peptides provided in Table 5 at various concentrations in standard medium with reduced serum conditions (0.5% FBS in MEM medium (HCE), growth factor-free K-SFM media (HCLE), 1% FBS in DMEM medium (HeLa) and 0.5% FBS in RPMI 1640 medium (MCF-7)). Scratches were photographed microscopically at 4× magnification (Image Express Micro, Molecular Devices, San Jose, Calif.) every hour over the course of the experiment. The wound area at each time-point was measured using Image J software (Image J 1.47v, NIH, Thornwood, Bethesda, Md.). Relative wound closure was calculated by dividing the closure of the treated wound by that of the untreated wound. For all the experiments including truncated histatin-5, a final concentration of 80 μM was used. PD98059 (Calbiochem, San Diego, Calif.) at final concentration of 50 μM was used as a specific inhibitor of MEK. PD98059 was added to cell cultures at the same time as histatin peptides.
To identify the residues of Hst5 required for epithelial cell migration, serial truncation experiments were performed, progressively deleting residues in Hst5. […] All peptides were tested at 80 μM. […] Thus, the SHRGY (SEQ ID NO:2) sequence is necessary and sufficient to promote epithelial migration rates in in vitro scratch assays.

p-ERK1/2 = test: Immunofluorescence imaging of p-ERK1/2 in scratched HCE monolayer; type: cell-based, Human; details: 80 μM, 45 minutes
Procedure: Immunofluorescence Imaging. HCE cells were seeded in 8-well chamber slide at 9×10^4 (cells/well) seeding density, and allowed to incubate to form a confluent monolayer. Subsequently, a straight-line scratch mark was made with a sterile P10 pipette tip. The cells were then washed with media to remove cellular debris. Wounded areas were subsequently left untreated or treated with Hst5, SP1 or SP2 at 80 μM concentrations in MEM media with 0.5% FBS for 45 minutes. Cells were then fixed with 4% paraformaldehyde for 30 minutes and permeabilized with 0.1% Triton X-100 for 5 minutes. After washing with PBS, cells were incubated at room temperature for 30 minutes with 5% bovine serum albumin (BSA) and 5% normal goat serum in PBS. Cells were subsequently incubated with primary antibodies diluted in 1% BSA against p-ERK1/2 (1:200) (Cell Signaling, Danver, Mass.) at 4° C. for 16 hours. After three washings with PBS, cells were incubated with fluorescein isothiocyanate-conjugated sheep anti-rabbit IgG antibody (BD Biosciences, San Jose, Calif.) (1:500) diluted in 1% BSA at room temperature for 60 minutes. After extensive washing with PBS, the cells were then stained with 4′,6-diamidino-2-phenylindole (DAPI; (Roche, Mannheim, GE) for 2 minutes for nuclear staining. The cells were mounted in Fluoro gel with Tris buffer (Electron Microscopy Sciences, Hattfield, Pa.) and observed under a confocal microscope (Zeiss LSM 710 Confocal Microscope, Oberkochen, Germany) using a 10× objective.
The level of activation/phosphorylation of ERK with and without wounding and with and without Hst5 application were investigated to determine whether the cellular signaling pathways underpinning the pro-migratory effects of Hst5 were similar to those of Hst1 in other epithelial cell types. Wounding causes an increased in phosphorylated form of ERK1/2 (p-ERK1/2). Immunolocalization was used to determine whether Hst5 application to a scratched sheet of epithelium would affect pERK1/2 levels.

DSHAKRHHGYKRKFHEKHHSHRGY [Hst5]
concentration of statistically significant peak effect on scratch closure [1]: 80 µM | cell migration (cell sprouting) (HCE cells): statistically significant increase in cell migration | scratch (wound) closure rates, relative closure [2]: significant increases in scratch closure rates | pERK1/2 immunolocalization / signal intensity (p-ERK1/2): increased signal intensity of phosphorylated ERK1/2; also recorded: elevated immunolocalization of pERK1/2
